Values of other authors, collected in patent US20240016441A1 (priority 2023, published 2024).
Like-named read-outs stand apart in the source and are kept apart here.

What was measured:
[1] = system: BDNF; conditions: male athletes, p<0.05
[2] = system: dopaminergic neurons; conditions: related to a glyoxalase pathway
[3] = for plasma L-lactate to brain metabolism: occipital-parietal lobe
[4] = system: dopaminergic neurons; conditions: neurons treated with L-lactate
[5] = system: glabellar reflex; conditions: successful levodopa treatment, patients with Parkinson's disease
[6] = in vivo
[7] = 84 mEq/L at 5 ml*kg^-1*h^-1 for 3.5 hours, single anesthetized patient
[8] = traumatic brain injury patients and healthy controls

## CC(O)C(=O)[O-].[Na+] (racemic) [sodium DL-lactate]
[1]
  BDNF blood concentration: increase

## C[C@@H](O)C(=O)O [D-lactate]
[2]
  survival of dopaminergic neurons: increase survival of dopaminergic neurons

## C[C@H](O)C(=O)O [L-lactate]
[3]; basal plasma L-lactate concentrations of ~1.0 mmol/L
  plasma L-lactate to brain metabolism: 10%
[3]; high physiologic plasma concentrations
  plasma L-lactate to brain metabolism: ≤ 60%
[4]
  effect on dopaminergic neurons: apoptosis of dopaminergic neurons

## N[C@@H](Cc1ccc(O)c(O)c1)C(=O)O [levodopa]
[5]
  glabellar reflex: reversal of the glabellar reflex

## C[C@H](O)C(=O)[O-].[Na+] [sodium L-lactate]
[6]
  adverse effects: without any adverse effects
[7]
  vital signs: without any significant change in vital signs

## [13CH3]C(O)C(=O)[O-].[Na+] [sodium [3-^13C] L-lactate]
[3]; 350 mmol/L, priming dose then continuous infusion for ~120 min
  adverse effects: without any adverse effects
[8]
  complications: without serious complications
  peak L-lactate blood concentration: 10.6 mg/dL
